This passage reports IC50 results from patent publication US9340590B2 (priority 2011, dated 2016).

Read-outs that look alike come from different tables or passages of the source. Positions of bridges follow the written chain, without caps; N, C: chain ends. Residues, ends and D or L forms follow the SMILES beside them.

What all share (experiment): cell-based
One assay deals with hNav1.7 (Homo sapiens, UniProt Q15858). The format is cell-based.
The target of the next assay is hNav1.5 (Homo sapiens, UniProt Q14524).
A further assay concerns the target hNav1.3 (Homo sapiens, UniProt Q9NY46). The conditions noted are these: IonWorks Quattro, read-out: IWQ Use Nav1.3. Background: In patch-clamp work, channel activity is measured electrically.
[1] abbreviates: IonWorks Quattro, Use, read-out: IWQ Use Nav1.5.

Chain of hNav1.7 (Q15858 whole entry, looked up): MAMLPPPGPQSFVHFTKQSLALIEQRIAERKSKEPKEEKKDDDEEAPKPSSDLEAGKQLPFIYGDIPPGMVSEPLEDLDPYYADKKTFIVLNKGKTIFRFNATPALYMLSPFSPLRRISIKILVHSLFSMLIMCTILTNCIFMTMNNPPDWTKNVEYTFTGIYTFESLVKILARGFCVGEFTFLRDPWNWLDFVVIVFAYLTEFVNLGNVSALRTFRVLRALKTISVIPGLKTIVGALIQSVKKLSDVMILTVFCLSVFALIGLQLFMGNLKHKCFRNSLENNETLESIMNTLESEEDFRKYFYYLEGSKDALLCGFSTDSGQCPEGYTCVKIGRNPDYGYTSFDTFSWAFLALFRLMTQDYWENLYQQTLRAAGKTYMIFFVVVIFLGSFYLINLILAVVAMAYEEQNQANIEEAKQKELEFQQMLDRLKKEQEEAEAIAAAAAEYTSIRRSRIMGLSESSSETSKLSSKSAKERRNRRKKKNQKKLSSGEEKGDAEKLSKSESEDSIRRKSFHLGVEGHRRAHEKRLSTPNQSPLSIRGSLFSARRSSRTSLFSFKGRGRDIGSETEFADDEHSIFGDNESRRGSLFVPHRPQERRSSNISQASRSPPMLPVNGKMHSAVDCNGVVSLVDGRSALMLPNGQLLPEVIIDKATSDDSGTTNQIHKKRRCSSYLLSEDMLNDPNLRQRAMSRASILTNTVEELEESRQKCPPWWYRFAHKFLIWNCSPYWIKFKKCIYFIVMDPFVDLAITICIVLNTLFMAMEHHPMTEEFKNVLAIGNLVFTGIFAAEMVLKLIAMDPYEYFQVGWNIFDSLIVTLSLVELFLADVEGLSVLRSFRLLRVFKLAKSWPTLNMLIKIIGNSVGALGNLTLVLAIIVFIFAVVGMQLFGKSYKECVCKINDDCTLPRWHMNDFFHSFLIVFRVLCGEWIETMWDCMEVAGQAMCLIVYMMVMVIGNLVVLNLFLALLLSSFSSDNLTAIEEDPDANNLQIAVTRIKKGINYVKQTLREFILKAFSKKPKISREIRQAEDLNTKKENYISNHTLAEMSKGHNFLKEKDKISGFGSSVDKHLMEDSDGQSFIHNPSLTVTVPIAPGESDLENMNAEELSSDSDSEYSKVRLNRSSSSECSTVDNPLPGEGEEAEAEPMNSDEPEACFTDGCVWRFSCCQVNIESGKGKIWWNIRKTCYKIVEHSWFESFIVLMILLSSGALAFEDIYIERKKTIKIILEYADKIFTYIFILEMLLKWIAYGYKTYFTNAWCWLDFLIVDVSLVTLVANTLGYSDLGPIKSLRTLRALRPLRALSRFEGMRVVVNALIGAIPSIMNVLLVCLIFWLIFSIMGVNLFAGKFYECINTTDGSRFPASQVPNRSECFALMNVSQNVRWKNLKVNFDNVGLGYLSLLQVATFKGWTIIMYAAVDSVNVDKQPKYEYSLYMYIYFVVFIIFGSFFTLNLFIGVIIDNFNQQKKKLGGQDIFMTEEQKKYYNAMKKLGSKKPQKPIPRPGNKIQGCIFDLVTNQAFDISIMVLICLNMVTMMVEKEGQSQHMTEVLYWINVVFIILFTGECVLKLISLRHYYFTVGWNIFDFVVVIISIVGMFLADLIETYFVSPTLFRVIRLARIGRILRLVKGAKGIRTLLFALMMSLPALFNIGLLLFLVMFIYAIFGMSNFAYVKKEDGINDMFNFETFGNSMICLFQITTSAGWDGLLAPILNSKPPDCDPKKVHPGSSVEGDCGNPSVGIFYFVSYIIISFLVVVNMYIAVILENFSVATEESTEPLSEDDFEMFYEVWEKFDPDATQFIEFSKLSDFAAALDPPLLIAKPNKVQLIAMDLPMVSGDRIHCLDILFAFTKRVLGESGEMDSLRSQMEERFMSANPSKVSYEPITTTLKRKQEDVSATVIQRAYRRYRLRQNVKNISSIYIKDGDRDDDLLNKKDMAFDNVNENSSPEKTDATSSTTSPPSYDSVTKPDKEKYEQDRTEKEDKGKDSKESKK
Chain of hNav1.5 (Q14524 whole entry, looked up): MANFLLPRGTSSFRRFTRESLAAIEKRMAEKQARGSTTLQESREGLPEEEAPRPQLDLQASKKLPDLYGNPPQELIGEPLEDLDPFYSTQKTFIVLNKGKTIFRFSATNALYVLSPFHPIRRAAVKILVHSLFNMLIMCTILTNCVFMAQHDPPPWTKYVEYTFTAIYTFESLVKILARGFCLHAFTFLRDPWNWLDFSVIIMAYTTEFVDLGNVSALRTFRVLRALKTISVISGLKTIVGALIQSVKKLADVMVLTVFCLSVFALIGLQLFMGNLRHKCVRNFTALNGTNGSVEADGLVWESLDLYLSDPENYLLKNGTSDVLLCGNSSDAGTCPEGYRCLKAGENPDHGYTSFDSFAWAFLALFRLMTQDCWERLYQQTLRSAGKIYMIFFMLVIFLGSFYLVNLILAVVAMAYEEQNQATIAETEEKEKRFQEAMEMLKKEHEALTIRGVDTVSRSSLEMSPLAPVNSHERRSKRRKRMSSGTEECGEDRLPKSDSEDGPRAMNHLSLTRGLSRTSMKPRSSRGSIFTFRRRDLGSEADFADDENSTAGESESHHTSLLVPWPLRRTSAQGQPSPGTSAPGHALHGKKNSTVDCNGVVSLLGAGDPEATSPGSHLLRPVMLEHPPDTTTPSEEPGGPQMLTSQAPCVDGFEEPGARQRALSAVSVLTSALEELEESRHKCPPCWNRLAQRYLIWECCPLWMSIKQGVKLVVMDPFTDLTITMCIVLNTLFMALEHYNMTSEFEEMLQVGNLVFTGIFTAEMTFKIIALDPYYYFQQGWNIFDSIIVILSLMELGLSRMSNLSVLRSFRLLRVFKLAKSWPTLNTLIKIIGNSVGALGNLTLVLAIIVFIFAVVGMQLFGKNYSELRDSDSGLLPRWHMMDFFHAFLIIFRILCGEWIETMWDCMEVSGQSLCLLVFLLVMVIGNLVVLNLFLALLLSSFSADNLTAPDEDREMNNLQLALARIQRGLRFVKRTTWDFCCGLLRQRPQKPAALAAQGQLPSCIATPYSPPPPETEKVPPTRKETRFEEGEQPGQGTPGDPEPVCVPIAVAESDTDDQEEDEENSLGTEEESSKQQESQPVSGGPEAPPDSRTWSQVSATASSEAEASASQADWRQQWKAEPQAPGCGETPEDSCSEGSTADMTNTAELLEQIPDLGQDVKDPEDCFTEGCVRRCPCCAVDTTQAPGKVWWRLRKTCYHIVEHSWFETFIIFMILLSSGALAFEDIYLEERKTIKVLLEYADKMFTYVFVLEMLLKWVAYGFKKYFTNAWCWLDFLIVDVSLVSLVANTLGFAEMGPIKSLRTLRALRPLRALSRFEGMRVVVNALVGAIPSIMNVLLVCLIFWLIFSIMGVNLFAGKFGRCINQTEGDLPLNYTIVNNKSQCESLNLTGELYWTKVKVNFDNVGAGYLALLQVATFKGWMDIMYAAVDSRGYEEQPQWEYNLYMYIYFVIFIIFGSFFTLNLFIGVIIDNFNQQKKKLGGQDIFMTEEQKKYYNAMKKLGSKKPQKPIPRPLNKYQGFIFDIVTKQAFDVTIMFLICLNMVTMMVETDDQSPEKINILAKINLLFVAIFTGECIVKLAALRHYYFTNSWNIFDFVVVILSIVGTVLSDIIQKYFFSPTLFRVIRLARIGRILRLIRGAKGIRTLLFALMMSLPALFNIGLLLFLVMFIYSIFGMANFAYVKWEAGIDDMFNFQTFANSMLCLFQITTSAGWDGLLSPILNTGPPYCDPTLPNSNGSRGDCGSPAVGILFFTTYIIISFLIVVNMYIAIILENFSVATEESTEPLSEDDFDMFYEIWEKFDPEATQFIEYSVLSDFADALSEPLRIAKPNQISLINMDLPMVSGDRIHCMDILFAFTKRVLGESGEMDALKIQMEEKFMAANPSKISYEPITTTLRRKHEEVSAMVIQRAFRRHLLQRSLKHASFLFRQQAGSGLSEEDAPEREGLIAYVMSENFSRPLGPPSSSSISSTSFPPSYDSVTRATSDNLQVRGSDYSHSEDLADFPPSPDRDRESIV

With `CC[C@H](C)[C@@H]1NC(=O)[C@@H]2CSSC[C@@H]3NC(=O)[C@H](C(C)C)NC(=O)[C@H](CC(C)C)NC(=O)[C@H](CC(N)=O)NC(=O)[C@@H]4CCCN4C(=O)[C@H](CCCNC(=N)N)NC(=O)[C@H](CSSC[C@H](NC(=O)[C@@H](N)CC(=O)O)C(=O)N[C@@H](CC(C)C)C(=O)NCC(=O)N[C@@H](Cc4ccccc4)C(=O)N[C@@H](CCSC)C(=O)N[C@@H](CCCNC(=N)N)C(=O)N[C@@H](CCCCN)C(=O)N2)NC(=O)[C@H](CSSC[C@@H](C(=O)N[C@@H](CCCCN)C(=O)N[C@@H](Cc2ccc(O)cc2)C(=O)N[C@H](C(=O)N[C@@H](Cc2ccccc2)C(N)=O)C(C)C)NC(=O)[C@H](Cc2c[nH]c4ccccc24)NC(=O)[C@H](C)NC(=O)[C@H](Cc2cnc[nH]2)NC(=O)[C@H]([C@@H](C)O)NC(=O)[C@H](CCCNC(=N)N)NC(=O)[C@H](CO)NC3=O)NC(=O)[C@H](CCCCN)NC(=O)[C@H](CC(=O)O)NC(=O)[C@H](CC(N)=O)NC(=O)[C@H](CC(=O)O)NC(=O)[C@@H]2CCCN2C1=O` [compound 12] (H-DCLGFMRKCIPDNDKCCRPNLVCSRTHAWCKYVF-NH2; disulfide 2-17, 9-23, 16-30), the IC50 was 360 nM against hNav1.7; 17.3 µM on hNav1.5 (Table 23, IonWorks Quattro, use, […], read-out: IWQ Use Nav1.5); 660 nM on hNav1.3 (Table 23, use, […]).

With `CC[C@H](C)[C@@H]1NC(=O)[C@@H]2CSSC[C@@H]3NC(=O)[C@H](C(C)C)NC(=O)[C@H](CC(C)C)NC(=O)[C@H](CC(N)=O)NC(=O)[C@@H]4CCCN4C(=O)[C@H](CCCNC(=N)N)NC(=O)[C@H](CSSC[C@H](NC(=O)[C@@H](N)CC(=O)O)C(=O)N[C@@H](CC(C)C)C(=O)NCC(=O)N[C@@H](Cc4ccccc4)C(=O)N[C@@H](CCSC)C(=O)N[C@@H](CCCNC(=N)N)C(=O)N[C@@H](CCCCN)C(=O)N2)NC(=O)[C@H](CSSC[C@@H](C(=O)N[C@@H](C)C(=O)N[C@@H](Cc2ccc(O)cc2)C(=O)N[C@H](C(=O)N[C@@H](Cc2ccccc2)C(N)=O)C(C)C)NC(=O)[C@H](Cc2c[nH]c4ccccc24)NC(=O)[C@H](CCCCN)NC(=O)[C@H](Cc2cnc[nH]2)NC(=O)[C@H]([C@@H](C)O)NC(=O)[C@H](CCCNC(=N)N)NC(=O)[C@H](CO)NC3=O)NC(=O)[C@H](CCCCN)NC(=O)[C@H](CC(=O)O)NC(=O)[C@H](CC(N)=O)NC(=O)[C@H](CC(=O)O)NC(=O)[C@@H]2CCCN2C1=O` [compound 13] (H-DCLGFMRKCIPDNDKCCRPNLVCSRTHKWCAYVF-NH2; disulfide 2-17, 9-23, 16-30), the IC50 was 7940 nM against hNav1.7; 14.5 µM on hNav1.5 (IWQ Use Nav1.5 (μM)); 7390 nM at hNav1.3 (Table 25, use, […]).

`CC[C@H](C)[C@@H]1NC(=O)[C@@H]2CSSC[C@@H]3NC(=O)[C@H](C(C)C)NC(=O)[C@H](CC(C)C)NC(=O)[C@H](CC(N)=O)NC(=O)[C@@H]4CCCN4C(=O)[C@H](CCCNC(=N)N)NC(=O)[C@H](CSSC[C@H](NC(=O)[C@@H](N)CC(=O)O)C(=O)N[C@@H](CC(C)C)C(=O)NCC(=O)N[C@@H](Cc4ccccc4)C(=O)N[C@@H](CCSC)C(=O)N[C@@H](CCCNC(=N)N)C(=O)N[C@@H](CCCCN)C(=O)N2)NC(=O)[C@H](CSSC[C@@H](C(=O)N[C@@H](CCCCN)C(=O)N[C@@H](Cc2ccc(O)cc2)C(=O)N[C@@H](C)C(=O)N[C@@H](Cc2ccccc2)C(N)=O)NC(=O)[C@H](Cc2c[nH]c4ccccc24)NC(=O)[C@H](CCCCN)NC(=O)[C@H](Cc2cnc[nH]2)NC(=O)[C@H]([C@@H](C)O)NC(=O)[C@H](CCCNC(=N)N)NC(=O)[C@H](CO)NC3=O)NC(=O)[C@H](CCCCN)NC(=O)[C@H](CC(=O)O)NC(=O)[C@H](CC(N)=O)NC(=O)[C@H](CC(=O)O)NC(=O)[C@@H]2CCCN2C1=O` [compound 15] (H-DCLGFMRKCIPDNDKCCRPNLVCSRTHKWCKYAF-NH2; disulfide 2-17, 9-23, 16-30): the IC50 on hNav1.7 (Table 26, IonWorks Quattro, use, […], read-out: IWQ Use Nav1.7) was found to be 330 nM; at hNav1.5 (Table 26, IonWorks Quattro, use, […], read-out: IWQ Use Nav1.5) it was 18.6 µM; at hNav1.3 (Table 26, use, […]), 350 nM.

Consider `CC[C@H](C)[C@@H]1NC(=O)[C@@H]2CSSC[C@@H]3NC(=O)[C@H](C(C)C)NC(=O)[C@H](CC(C)C)NC(=O)[C@H](CC(N)=O)NC(=O)[C@@H]4CCCN4C(=O)[C@H](CCCNC(=N)N)NC(=O)[C@H](CSSC[C@H](NC(=O)[C@@H](N)CC(=O)O)C(=O)N[C@@H](CC(C)C)C(=O)NCC(=O)N[C@@H](Cc4ccccc4)C(=O)N[C@@H](CCSC)C(=O)N[C@@H](CCCNC(=N)N)C(=O)N[C@@H](CCCCN)C(=O)N2)NC(=O)[C@H](CSSC[C@@H](C(=O)N[C@@H](CCCCN)C(=O)N[C@@H](Cc2ccc(O)cc2)C(=O)N[C@H](C(=O)N[C@@H](Cc2ccccc2)C(=O)N[C@@H](C)C(N)=O)C(C)C)NC(=O)[C@H](Cc2c[nH]c4ccccc24)NC(=O)[C@H](CCCCN)NC(=O)[C@H](Cc2c[nH]cn2)NC(=O)[C@H]([C@@H](C)O)NC(=O)[C@H](CCCNC(=N)N)NC(=O)[C@H](CO)NC3=O)NC(=O)[C@H](CCCCN)NC(=O)[C@H](CC(=O)O)NC(=O)[C@H](CC(N)=O)NC(=O)[C@H](CC(=O)O)NC(=O)[C@@H]2CCCN2C1=O` [compound 16], for which the IC50 at hNav1.7 (IonWorks Quattro, use-dependent, […], read-out: IWQ Use Nav1.7 (μm)) was determined as 410 nM; at hNav1.5 (IonWorks Quattro, use-dependent, […], read-out: IWQ Use Nav1.5), 14.2 µM; at hNav1.3 (use-dependent, […]) it was 260 nM.

As to `CC[C@H](C)[C@@H]1NC(=O)[C@@H]2CSSC[C@@H]3NC(=O)[C@H](C(C)C)NC(=O)[C@H](CC(C)C)NC(=O)[C@H](CC(N)=O)NC(=O)[C@@H]4CCCN4C(=O)[C@H](CCCNC(=N)N)NC(=O)[C@H](CSSC[C@H](NC(=O)[C@@H](N)CC(=O)O)C(=O)N[C@@H](CC(C)C)C(=O)NCC(=O)N[C@@H](Cc4ccccc4)C(=O)N[C@@H](CCSC)C(=O)N[C@@H](CCCNC(=N)N)C(=O)N[C@@H](CCCCN)C(=O)N2)NC(=O)[C@H](CSSC[C@@H](C(=O)N[C@@H](CCCCN)C(=O)N[C@@H](Cc2ccc(O)cc2)C(=O)N[C@H](C(=O)N[C@@H](Cc2ccccc2)C(N)=O)C(C)C)NC(=O)[C@H](Cc2c[nH]c4ccccc24)NC(=O)[C@H](CCCCN)NC(=O)[C@H](Cc2cnc[nH]2)NC(=O)[C@H]([C@@H](C)O)NC(=O)[C@H](CCCNC(=N)N)NC(=O)[C@H](CO)NC3=O)NC(=O)[C@H](CCCCN)NC(=O)[C@H](CC(=O)O)NC(=O)[C@H](CC(N)=O)NC(=O)[C@H](CCC(=O)O)NC(=O)[C@@H]2CCCN2C1=O` [compound 26] (H-DCLGFMRKCIPENDKCCRPNLVCSRTHKWCKYVF-NH2; disulfide 2-17, 9-23, 16-30), the results for the IC50 at hNav1.7, at hNav1.5 (setting [1]) and on hNav1.3 (Use) were 260 nM, 6.45 µM and 190 nM, respectively.

Take `CC[C@H](C)[C@@H]1NC(=O)[C@@H]2CSSC[C@@H]3NC(=O)[C@H](C(C)C)NC(=O)[C@H](CC(C)C)NC(=O)[C@H](CC(N)=O)NC(=O)[C@@H]4CCCN4C(=O)[C@H](CCCNC(=N)N)NC(=O)[C@H](CSSC[C@H](NC(=O)[C@@H](N)CC(=O)O)C(=O)N[C@@H](CC(C)C)C(=O)NCC(=O)N[C@@H](Cc4ccccc4)C(=O)N[C@@H](CCSC)C(=O)N[C@@H](CCCNC(=N)N)C(=O)N[C@@H](CCCCN)C(=O)N2)NC(=O)[C@H](CSSC[C@@H](C(=O)N[C@@H](CCCCN)C(=O)N[C@@H](Cc2ccc(O)cc2)C(=O)N[C@H](C(=O)N[C@@H](Cc2ccccc2)C(N)=O)C(C)C)NC(=O)[C@H](Cc2c[nH]c4ccccc24)NC(=O)[C@H](CCCCN)NC(=O)[C@H](Cc2cnc[nH]2)NC(=O)[C@H]([C@@H](C)O)NC(=O)[C@H](CCCNC(=N)N)NC(=O)[C@H](CO)NC3=O)NC(=O)[C@H](CCCCN)NC(=O)[C@H](CC(=O)O)NC(=O)[C@H](CCC(=O)O)NC(=O)[C@H](CC(=O)O)NC(=O)[C@@H]2CCCN2C1=O` [compound 27] (H-DCLGFMRKCIPDEDKCCRPNLVCSRTHKWCKYVF-NH2; disulfide 2-17, 9-23, 16-30): the IC50 was 260 nM on hNav1.7 (IonWorks Quattro, Use, read-out: IWQ Use Nav1.7); 9.38 µM at hNav1.5 (setting [1]); 220 nM at hNav1.3 (Use).

On to `CC[C@H](C)[C@@H]1NC(=O)[C@@H]2CSSC[C@@H]3NC(=O)[C@H](C(C)C)NC(=O)[C@H](CC(C)C)NC(=O)[C@H](CC(N)=O)NC(=O)[C@@H]4CCCN4C(=O)[C@H](CCCNC(=N)N)NC(=O)[C@H](CSSC[C@H](NC(=O)[C@@H](N)CC(=O)O)C(=O)N[C@@H](CC(C)C)C(=O)NCC(=O)N[C@@H](Cc4ccccc4)C(=O)N[C@@H](CCSC)C(=O)N[C@@H](CCCNC(=N)N)C(=O)N[C@@H](CCCCN)C(=O)N2)NC(=O)[C@H](CSSC[C@@H](C(=O)N[C@@H](CCCCN)C(=O)N[C@@H](Cc2ccc(O)cc2)C(=O)N[C@H](C(=O)N[C@@H](Cc2ccccc2)C(N)=O)C(C)C)NC(=O)[C@H](Cc2c[nH]c4ccccc24)NC(=O)[C@H](CCCCN)NC(=O)[C@H](Cc2c[nH]cn2)NC(=O)[C@H]([C@@H](C)O)NC(=O)[C@H](CCCNC(=N)N)NC(=O)[C@H](CO)NC3=O)NC(=O)[C@H](CCC(=O)O)NC(=O)[C@H](CC(=O)O)NC(=O)[C@H](CC(N)=O)NC(=O)[C@H](CC(=O)O)NC(=O)[C@@H]2CCCN2C1=O` [compound 28] (H-DCLGFMRKCIPDNDECCRPNLVCSRTHKWCKYVF-NH2; disulfide 2-17, 9-23, 16-30), for which the IC50 amounted to 590 nM on hNav1.7, 12.1 µM at hNav1.5 (setting [1]) and 490 nM on hNav1.3 (Use).
